{
  "source": "patent US20170037425A1",
  "about": "“METHOD FOR IMPROVING PLANT TRAIT” (SHANGHAI INSTITUTES FOR BIOLOGICAL SCIENCES, CHINESE …, priority 2012, published 2017)",
  "key": {"[1]": {"assay": "In vitro H2O hydrolysis and oxygen evolution catalyzed by LEAT protein under light", "assay_type": "biochemical", "design": "key to O2 evolution activity: +: similar O2 evolution activity as that of YFP; ++: higher O2 evolution activity than that of YFP by at least one order of magnitude; weak: lower activity than that of YFP by at least one order of magnitude", "protocol": "1.85 ml of 50 mM phosphate buffer (pH6.5) was added in the reaction vessel of Clark-type oxygen electrode, then LEAT proteins (at a final concentration of 0.02-1 μg/ml) and 400 μM 2,3,5-trimethyl-1,4-benzoquinone (TMBQ) or other quinones were sequentially added into the buffer in dark. The oxygen evolution rate was measured under the light with corresponding excitation wave length for LEAT proteins and light intensity at 1-2 μmol m^−2 s^−1."}, "[2]": {"system": "Rubisco", "assay": "Rubisco activity assay in transgenic Brassica leaves", "assay_type": "in vivo, Brassica napus L.", "protocol": "Ribulose-1,5-bisphosphate carboxylase/oxygenase (Rubisco) carboxylase activity assay: Soluble proteins were extracted from fresh leaves with extraction buffer (50 mM Tris-HCl pH 7.8, 1 mM EDTA, 50 mM NaCl, 2 mM β-Mercaptoethanol). The homogenate was centrifuged (12,000 g for 6 min at 4° C.) and the supernatant was used for Rubisco activity assay. Carboxylase activity of Rubisco was measured with ^14C-labelled method as described in (Wang Z Y, Snyder G W, Esau B D, Portis A R, Ogren W L (1992) Species-dependent variation in the interaction of substrate-bound ribulose-1,5-bisphosphate carboxylase/oxygenase (Rubisco) and Rubisco activase. Plant Physiology 100: 1858-1862)."}, "[3]": {"system": "Brassica", "assay": "Chlorophyll and pigment contents of transgenic Brassica leaves", "assay_type": "in vivo, Brassica napus L.", "protocol": "Chlorophylls and pigments were extracted from Brassica leaves with 80% acetone. Chlorophyll contents were measured as described by Arnon D J 1949, Plant Physiol 24:1-15. Carotenoid contents were measured as described by Niyogi et al., (1997), Proc. Natl. Acad. Sci. U.S.A. 94, 14162-14167."}, "[4]": {"system": "Brassica", "assay": "Stomatal conductance and intercellular CO2 concentration of transgenic Brassica", "assay_type": "in vivo, Brassica napus L.", "protocol": "Gas exchange was measured using photosynthetic infrared gas analysis system (LI-6400, Li-Cor Inc, Lincoln, Nebr., USA). The net photosynthetic rate (Pn) and stomatal conductance (Gs) was measured. Sunlight and artificial light were used as artificial light sources for measurement. The ambient CO2 during the measurements was controlled at 400 μmol mol^−1. The ambient temperature was controlled at the temperature for plant growth. Six leaves were measured for each line of plant."}, "[5]": {"system": "etiolated Brassica hypocotyls", "assay": "Respiration rate and oxygen evolution in etiolated hypocotyls of transgenic Brassica", "assay_type": "in vivo, Brassica napus L.", "settings": "etiolated hypocotyl", "protocol": "5-6 individual hypocotyls (5-6 cm in length) were collected from 1-week-old etiolated Brassica. The roots and cotyledons were detached and the hypocotyls were cut into 1 mm in length after weighing. The hypocotyls were put into the reaction vessel of the Clack-type oxygen electrode. The changes of dissolved oxygen content in solution over measuring time were recorded in dark or under light, respectively. Then 15 mM HgCl2 was added to block the respiration, and the change of dissolved oxygen content in solution was recorded. The difference between the respiration rate under light and in dark, and the oxygen evolution rate when respiration was blocked by HgCl2 was calculated."}, "[6]": {"system": "Brassica", "assay": "Soluble protein content of transgenic Brassica", "assay_type": "in vivo, Brassica napus L.", "settings": "three lines", "protocol": "In this invention, three lines of mCherry transgenic Brassica were selected and the content of soluble protein was measured and compared with that in WT. The content of soluble protein in mCherry transgenic Brassica was increased."}, "[7]": {"system": "wheat", "assay": "Phenotype of transgenic wheat", "assay_type": "in vivo", "protocol": "Wheat transformation was performed with method described in Supartana P, Shimizu T, Nogawa M, Shioiri H, Nakajima T, Haramoto N, Nozue M, and Kojima M. Development of simple and efficient in Planta transformation method for wheat (Triticum aestivum L.) Using Agrobacterium tumefaciens, Journal of Bioscience and Bioengineering 102, 162-170."}, "[8]": {"system": "rice", "assay": "Phenotype of transgenic rice", "assay_type": "in vivo", "protocol": "Rice transformation was performed with method described in Liu Qiaoquan, Zhang Jingliu, Wang Zongyang, Hong Mengming and Gu Minghong (1998). A highly efficient transformation system mediated by Argrobacteriun tumefaciens in rice (Oryza sativa L.). Acta Phytophysiologica Sinica 24, 259-271."}},
  "note": "Entries after “also recorded” stand apart in the source; their conditions may differ.",
  "data": [
    {"substance": "mCherry: red fluorescent protein, amino acid sequence SEQ ID NO: 2", "values": [
      {"measurement": "water photohydrolysis and O2 evolution activity under light", "setting": "[1]; TMBQ substituted with DQ or UQ", "result": "does not have water photohydrolysis and O2 evolution activity"},
      {"measurement": "activity of water hydrolysis among the quinones tested (order)", "setting": "[1]; different quinones, under light", "result": "TMBQ>DMBQ2>MBQ>DMBQ1"},
      {"measurement": "O2 evolution activity", "setting": "[1]; water hydrolysis and O2 evolution under light, relative to YFP", "result": "+"},
      {"measurement": "Rubisco activity and Rubisco activation state", "setting": "[2]", "result": "increased"},
      {"measurement": "accessory photosynthetic pigments (carotenoids) content", "setting": "[3]", "result": "increased"},
      {"measurement": "chlorophyll content and ratio of Chl a/b", "setting": "[3]", "result": "did not change"},
      {"measurement": "stomatal conductance (Gs) vs WT", "setting": "[4]; transgenic Brassica", "result": "increased"},
      {"measurement": "intercellular CO2 concentration (Ci)", "setting": "[4]; transgenic Brassica leaves", "result": "did not lead to the decrease"},
      {"measurement": "net O2 evolution", "setting": "[5]; O2 uptake inhibited by HgCl2, under light", "result": "observed significantly"},
      {"measurement": "O2 uptake rate under light vs WT", "setting": "[5]; without HgCl2", "result": "significant lower"},
      {"measurement": "content of soluble protein vs WT", "setting": "[6]", "result": "increased"},
      {"measurement": "seed size and grain yield per plant vs WT", "setting": "[7]", "result": "increase"},
      {"measurement": "seed size and panicle size vs WT", "setting": "[7]", "result": "significantly increased"},
      {"measurement": "plant growth vs WT", "setting": "[8]", "result": "grow better than WT; also recorded: improve the growth"},
      {"measurement": "seed size and grain yield per plant vs WT", "setting": "[8]", "result": "increase"}
    ]}
  ]
}
